Laboratory results: patent US20140121181A1, “HYDROPHOBIC POLYMER COMPOUND HAVING ANTICOAGULANT EFFECT” (TORY INDUSTRIES, INC., priority 2011, published 2014)

System: citric acid-supplemented blood collected from a volunteer
Test: Measurement of whole blood coagulation time (Sonoclot, ACT ONSET value)
Parameters: species or system human
Method: In a cuvette (Non-activated Clotting Test Kit), 18 μL of physiological saline was placed and 14.8 μL of calcicol was added thereto, followed by further addition of 342 μL of the thus obtained citric acid-supplemented blood. The resulting mixture was measured using a Sonoclot blood coagulation/platelet function analyzer (IMI Co., Ltd.) and the measured ACT ONSET value was defined as the whole blood coagulation time.

## CC1CNc2c(cccc2S(=O)(=O)N[C@@H](CCCNC(=N)N)C(=O)N2CC[C@@H](C)C[C@@H]2C(=O)O)C1 (mixture of isomers) [argatroban, (2R,4R)-4-methyl-1-((2S)-2-{[(3RS)-3-methyl-1,2,3,4-tetrahydroquinolin-8-yl]sulfonyl}amino-5-guanidinopentanoyl)piperidine-2-carboxylic acid]
2 μM test solution/dispersion in place of physiological saline
  whole blood coagulation time: 520 s
10 μM test solution in place of physiological saline
  whole blood coagulation time: 734 s
20 μM test solution in place of physiological saline
  whole blood coagulation time: 893 s
